Data published in patent US20060030616A1, “Anhydride modified cantharidin analogues useful in the treatment of cancer” (priority 1998, published 2006).
Like-named read-outs stand apart in the source and are kept apart here.

Tests used:
L1210 cells = assay: MTT cytotoxicity assay, 72 h; format: cell-based, murine; conditions: L1210, p53 wt, read-out: IC50 (mean ± SE) after 72 h continuous exposure
Method: Cells in a subconfluent phase are transferred to 96-well microtitre plates. L1210 cells are plated at a density of 1000 cells/well in 100 μl medium, while all other cell lines are plated at a density of 2000-25000 cells/well. The cells are left for 24 h prior to treatment to ensure exponential growth has been achieved, 24 h after plating (day 0), 100 μl of phosphatase inhibitor is added to each well, control wells received 100 μl of medium only. Drug exposure time is 72 h (day 3). The effect of phosphatase inhibition is tested in triplicate over a concentration range of […]−1×10^−8 M. Growth inhibitory effects are evaluated using the MTT assay and absorbance read at […]. The IC50 is the drug concentration at which cell growth is 50% inhibited based on the difference of optical density on day 0 and day 3 of drug exposure. Cytotoxicity is evaluated using a spectrophotometric assay which determines the percentage of cell growth following exposure of the cells to various concentrations of the phosphatase inhibitors for a period of 72 hours. The subsequent dose response curve is used to calculate IC50 values (the drug concentration at which cell growth is 50% inhibited).
Anti-cancer screening of the protein phosphatase inhibitors is assessed using the MTT assay. This assay determines cell viability by the ability of mitochondrial dehydrogenase to produce formazan crystals from 3-(4,5-dimethylthiazol-2-yl)-2,5-diphenyltetrazolium bromide. The viable cell number/well is directly proportional to the production of formazan, which following solubilization, can be measured spectrophotometrically (540 nm). This technique is also used by the National Cancer Institute to screen for new anticancer agents.
As described herein a number of cantharidin analogues have been synthesised and tested for their anticancer activity in nine cancer cell lines using the MTT assay after 72 h exposure. These new analogues are shown in FIG. 2 and have been designated MK-1 through to MK-9.

A2780 cells = assay: MTT cytotoxicity assay, 72 h; format: cell-based, human; conditions: A2780, p53 wt; read-out: IC50 (mean ± SE) after 72 h continuous exposure
Method in brief: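 Exponentially growing cells (24 h after plating; L1210 1000 cells/well, remaining lines 2000-25000 cells/well) receive phosphatase inhibitor, tested in triplicate, for 72 h. Growth is scored by MTT at 540 nm, and IC50 is derived from the resulting dose-response curve.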

HCT116 cells = assay: Combination studies, Median Effect Method (MTT); format: cell-based, human; conditions: simultaneous
Method: (§1) Those protein phosphatase inhibitors which show abrogation of either the G1 or G2 checkpoint will then be exploited in combination studies with either radiation exposure or chemotherapy drugs incubation. The MTT (3-[4,5-dimethylthiazol-2-yl]2,5-diphenyl-tetrazolium bromide) assay is used to determine whether a synergistic, antagonistic or additive effect is induced. The Median Effect method is adopted to mathematically determine the optimal combination index of the treatments chosen (Chou and Talalay, 1984). This method has been extensively used to investigate the cytotoxicity of various drug combinations including cisplatin and D1694 (Ackland et al 1996; 1998). A combination index value less than 1 indicates synergism, a value equal to 1 indicates additivity and a value greater than one indicates antagonism.
(§2) The cell lines listed above are exposed continuously to cisplatin and the phosphatase inhibitor in various drug ratio combinations for 72 h and then assayed for cytotoxicity; Similarly, the cells are exposed to 8 Gy of radiation and incubated with the phosphatase inhibitor and assessed for cytotoxicity at 72 h.
(§3) This method tests the cytotoxicity of various drug combinations from which a combination index can be calculated. A value of greater than one indicated antagonism, a value equal to 1 indicates additivity, while a value less than one indicates synergism. The HT29 and HCT116 cell lines were chosen as they have differing p53 status and they represent the tumour types that responded the greatest to cantharidin and its analogues.

HT29 cells = assay: Combination studies, Median Effect Method (MTT); format: cell-based, human; conditions: simultaneous
Method: as §1, §2, §3

SMILES | IC50 (L1210 cells; Mus musculus, 72 h) | IC50 (L1210 cells) | IC50 (A2780 cells) | Combination response with taxotere (HCT116 cells) | Combination response with cisplatin (HCT116 cells; molar ratios 1:1, 10:1, 1:10) | Combination response with cisplatin (HT29 cells; molar ratios 1:1, 10:1, 1:10) | Combination response with taxotere (HT29 cells; ratios 1:10, 1:100, 1:1000 (Taxotere: MK-4))
C[C@@]12C(=O)OC(=O)[C@]1(C)[C@H]1CC[C@@H]2O1 [Cantharidin, exo.exo-2.3-dimethyl-7-oxobicyclo[2.2.1]heptane-2,3-dicarboxylic acid anhydride] | 18 µM |  |  |  |  |  | 
O=C1OC(=O)C2C3C=CC(O3)C12 (stereo not drawn) [MK-2] |  | 185 ± 51 µM | 157 ± 9 µM |  |  |  | 
O=C1OC(O)C2C3CCC(O3)C12 (stereo not drawn) [MK-4] |  | 680 ± 97 µM | 333 ± 55 µM | synergistic | additive | additive | additive
